{
  "source": "patent US6692927B2",
  "about": "“Bax degradation involvement in tumor survival and progression” (University of South Florida, priority 2000, dated 2004)",
  "system": "SV40-transformed (VA-13) cells",
  "test": "PARP cleavage, cytochrome c release and Bax accumulation in SV40-transformed fibroblasts",
  "type": "cell-based, human",
  "description": "Proteasome inhibitors activate Bax- and cytochrome c-dependent apoptosis pathway preferentially in transformed human fibroblasts. Normal human fibroblasts are more resistant to proteasome inhibitor-induced apoptosis than transformed and cancer cells (An et al., in press). This is probably due to inability of the normal cells to accumulate Bax protein in response to proteasome inhibition, and consequently failure to release cytochrome c. To test this hypothesis, both SV40-transformed and normal WI-38 cells were treated with 50 microM LLnV for up to 24 hours, followed by measurement of PARP cleavage, cytochrome c release and Bax accumulation. […] In contrast, only after 24 hours treatment, low levels of p85/PARP fragment and cytosolic cytochrome c were detected in normal WI-38 cells (FIGS. 1, A, B, lanes 8-14). […] The levels of Bax/p21 were increased at as early as 4 hours and remained high afterwards. […] The level of another band of ˜47 kDa increased at 4 hours, further increased between 6 and 12 hours, and then decreased (FIG. 1C). The p70 and p47 bands can contain ubiquitinated forms of Bax since similar polypeptides were detected by antibodies to both Bax and ubiquitin (Li et al., 1999). […] Therefore, although unable to activate the Bax- and cytochrome c-dependent apoptotic pathway in response to a low concentration of a proteasome inhibitor, normal cells are capable of undergoing Bax- and cytochrome c-independent apoptosis in response to a proteasome inhibitor at higher concentrations.\nSV40-transformed (VA-13) and normal WI-38 cells were treated with 50 microM LLnV or DMSO (letter D) for up to 24 hours, followed by measurement of PARP cleavage (A), cytochrome c release (B) and Bax accumulation (C; also see FIG. 2). Panel D, exponentially grown VA-13 cells were pretreated with 50 microM LLnV or DMSO for 1 hour, washed with methionine-free medium, and then incubated for 30 minutes in methionine-free medium plus 50 microM LLnV (or DMSO). This was followed by replacing fresh methionine-free medium containing 150 microCi/ml of [^35S]-methionine, 10% dialyzed FBS and 50 microM LLnV (or DMSO). Cells were further incubated for 6 hours, followed by preparation of [^35S]-labeled protein lysates and Bax immunoprecipitates (6A7, PharMingen). The labeled Bax bands are indicated. […] Bax-alpha subcloned into pcDNA3 was used for coupled in vitro transcription/translation in the presence of [^35S]methionine. For Bax cleavage assay, the whole cell extracts were prepared. The [^35S]-labeled Bax (0.7 microl) was incubated with 50 microg protein in assay buffer (containing 50 microM LLM and no Ca^2+) for 4 hours at 37° C. Following incubation, the samples were subjected to SDS gel electrophoresis and autoradiography.",
  "note": "Where a SMILES comes first, the peptide text is derived from it. [ ]: non-standard residue; d: D form. The star is where a group is joined. Nva = CCC[C@H](N)C(=O)O; Cbz = O=C(OCc1ccccc1)*",
  "data": [
    {"smiles": "CCC[C@@H](C=O)NC(=O)[C@H](CC(C)C)NC(=O)[C@H](CC(C)C)NC(=O)OCc1ccccc1", "note": "[LLnV] (Cbz-Leu-Leu-[Nva]-aldehyde)", "values": [
      {"measurement": "earliest time of increased Bax/p21 levels", "setting": "50 microM LLnV", "result": 4, "unit": "h"},
      {"measurement": "Bax levels", "setting": "50 microM LLnV, prior to release of cytochrome c", "result": "dramatically increased"},
      {"measurement": "time at which cleavage of PARP and release of cytochrome c were detected", "setting": "50 microM LLnV, up to 24 hours", "result": 8, "unit": "h"},
      {"measurement": "Bax accumulation and apoptosis (PARP cleavage)", "setting": "LLnV treatment (FIG. 4B)", "result": "rapidly accumulated Bax protein and subsequently induced apoptosis"}
    ]}
  ]
}
